Structures are written as SMILES. pIC50: −log10 of the molar value.

The record followed here is patent US11993574B2, “Pyrazole and imidazole compounds for inhibition of IL-17 and RORgamma” (REATA PHARMACEUTICALS, INC., priority 2018, dated 2024).

Assay type in all cases: cell-based
Assay [1] concerns Nrf2 transcription factor. Put plainly: AREc32 luciferase reporter assay. Particulars: Homo sapiens; AREc32 cells, 19 hours; concentration required to increase GST ARE luciferase reporter activity by 2-fold; read-out: NRF2 ARE 2-Fold (EC2×). A digest of the protocol:
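AREc32 cells (MCF-7 with firefly luciferase under eight rat GSTA2 ARE copies) treated 19 h with compound (0.4-200 nM or 3.9-2000 nM) in triplicate. Luminescence normalized to DMSO as fold-induction, capped at 50-fold. EC2× = concentration giving 2-fold reporter increase, interpolated from variable-slope fit.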
(Reporter assays use an easily measured gene product as a stand-in for the process of interest.)

For assay [2], the target named is T1, Human RAR-related Orphan Receptor Gamma (RORγ) (Homo sapiens, UniProt P51449).
T1 sequence (P51449 269-508 limits assumed): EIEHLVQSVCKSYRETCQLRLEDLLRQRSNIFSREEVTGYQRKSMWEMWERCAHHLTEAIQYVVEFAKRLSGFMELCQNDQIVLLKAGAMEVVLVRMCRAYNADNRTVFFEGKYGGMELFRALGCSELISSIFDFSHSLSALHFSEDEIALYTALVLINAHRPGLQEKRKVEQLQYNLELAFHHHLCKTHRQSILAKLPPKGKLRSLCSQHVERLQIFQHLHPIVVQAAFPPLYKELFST
Nature of the assay: RORγ assay (GAL4-RORγ hybrid luciferase reporter, Indigo Biosciences). Particulars: inverse-agonist activity, GAL4-RORγ reporter cells, 23 hours. Summed up:
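[…]engineered human reporter cell line expressing GAL4-DBD/RORγ-LBD hybrid with GAL4-UAS luciferase; constitutive activity measured as inverse agonism. Cells treated with compound (7.8-2000 nM) for 23 h at 37 °C; luminescence normalized to DMSO, IC50 by variable-slope fit, with parallel viability readout to flag non-specific inhibition.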

Assay [3] concerns IL-17A. Put plainly: IL-17 release from differentiated primary human T-cells (IL-17A HTRF assay). Particulars: primary human CD4+ T cells differentiated into Th17 cells, 45-hour incubation, IL-17A in supernatant; read-out: hIL17 IC50. Summed up: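 Primary human CD4+ T cells (~2×10^5/well) given compound (2–500 or 4–1000 nM, 0.1% DMSO), CD3/CD28-activated and Th17-differentiated (TGF-β, IL-6, IL-23, IL-1β) for 45 h at 37° C. Supernatant IL-17A by HTRF against standard curve, normalized to vehicle; IC50 by variable-slope regression, with parallel CyQuant viability.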
A general note: Time-resolved FRET reads energy transfer from a long-lived donor to a nearby acceptor.

What is called pIC50 is the IC50 on a negative log10 scale, so that one unit is a factor of ten. For `C[C@H]1C(=O)C(C#N)=C[C@@]2(C)c3nn(-c4ccc(-c5ccccc5)cc4)c(-c4ccccc4F)c3CC[C@H]12` [T123], the EC (2-fold) in assay [1] came out at 1.18 µM. The pIC50 in assay [2] was 6.86; in assay [3] it was 7.30.
For `C[C@H]1C(=O)C(C#N)=C[C@@]2(C)c3c(c(C4CC4)nn3-c3ccc(-c4ccccc4)cc3)CC[C@H]12` [T75], in that order: 0.248 µM, 7.17 and 6.89.
For `C[C@H]1C(=O)C(C#N)=C[C@@]2(C)c3nn(-c4cccc5ccccc45)c(-c4ccccc4)c3CC[C@H]12` [T24], in assay [1], the EC (2-fold) was 0.827 µM. Also, the pIC50 in assay [2] was 6.55; in assay [3] it was 7.52.
For `C[C@H]1C(=O)C(C#N)=C[C@@]2(C)c3nc(-c4cccc(-c5ccncc5)c4)n(-c4cccc(F)c4)c3CC[C@H]12` [T146], in that order: 0.423 µM, 6.97 and 7.15.
For `CC(C)c1ccc(-c2nc3c(n2CCO)CC[C@@H]2[C@@H](C)C(=O)C(C#N)=C[C@@]32C)cc1` [T172], in that order: more than 2 µM, 6.75 and less than 6.30.
For `C[C@H]1C(=O)C(C#N)=C[C@@]2(C)c3nc(-c4cnc5ccccc5c4)n(-c4cccc(F)c4)c3CC[C@H]12` [T137], in that order: 0.618 µM, 7.03 and 6.62.
In the case of `C[C@H]1C(=O)C(C#N)=C[C@@]2(C)c3c(c(-c4ccncn4)nn3-c3ccc(-c4cccc(F)c4)cn3)CC[C@H]12` [T58], the EC (2-fold) in assay [1] stood at 0.355 µM. Also, the negative-log IC50 (pIC50) in assay [2] is 6.89; in assay [3] it was 7.37.
On to `CNc1nn(-c2ccc(-c3ccccc3)cc2)c2c1CC[C@@H]1[C@@H](C)C(=O)C(C#N)=C[C@@]21C` [T79], for which the EC (2-fold) in assay [1] came to 1.04 µM. Besides, the values for the negative logarithm of the IC50 (pIC50) in assay [2] and in assay [3] were 6.85 and 6.75, respectively.
Regarding `C[C@H]1C(=O)C(C#N)=C[C@@]2(C)c3nc(C4CCCCC4)n(-c4ccccc4)c3CC[C@H]12` [T113], the EC (2-fold) in assay [1] is more than 1 µM. The negative logarithm of the IC50 (pIC50) in assay [2] is 6.76; in assay [3] it was 6.74.
For `C[C@H]1C(=O)C(C#N)=C[C@@]2(C)c3nc(-c4cccc(Cl)c4)n(-c4cnn(C)c4)c3CC[C@H]12` [T157], in that order: 1.28 µM, 6.99 and 6.49.
For `CC(=O)n1c(-c2ccc(C(C)C)cc2)nc2c1CC[C@@H]1[C@@H](C)C(=O)C(C#N)=C[C@@]21C` [T174], in assay [1], the EC (2-fold) was 0.923 µM. In addition, the negative-log IC50 (pIC50) in assay [2] was 5.80; in assay [3], 6.43.
Turning to `Cc1noc(-c2ccc(-n3nc(-c4ccc(F)cc4)c4c3[C@]3(C)C=C(C#N)C(=O)[C@H](C)[C@H]3CC4)cc2)n1` [T106], the EC (2-fold) in assay [1] is 0.29 µM. For the same molecule, the pIC50 is 7.08 in assay [2] and 7.57 in assay [3].
Turning to `C[C@H]1C(=O)C(C#N)=C[C@@]2(C)c3c(c(-c4ccccc4)nn3-c3ccc(C(F)(F)F)cc3)CC[C@H]12` [T6], in assay [1], the EC (2-fold) is 0.242 µM. The results for the pIC50 in assay [2] and in assay [3] were 7.04 and 7.46, respectively.
For the molecule `C[C@H]1C(=O)C(C#N)=C[C@@]2(C)c3c(c(-c4ccccc4)nn3C3CCOCC3)CC[C@H]12` [T27], in assay [1], the EC (2-fold) was 0.204 µM. For the same molecule, the pIC50 in assay [2] was 6.88; in assay [3], 7.21.
For `C[C@H]1C(=O)C(C#N)=C[C@@]2(C)c3nc(-c4ccnc(N5CCOCC5)c4)n(-c4cccc(F)c4)c3CC[C@H]12` [T139], in that order: 0.66 µM, 6.95 and 6.89.
